Experimental data from article PMC8333062, “Chemical tools for epichaperome-mediated interactome dysfunctions of the central nervous system” (Nature Communications, 2021).
“And” between values parts separate entries of the source, which are not always exact repeats. Equal values may be shown once. Read-outs that look alike come from different tables or passages of the source.

Tests used:
HER2 in SKBR3 cells = assay: HER2 degradation; format: cell-based, human
[1] = Pharmacokinetic studies in mice (LC-MS/MS); format: in vivo, B6D2F1 mice; parameters: key to Brain level: brain drug concentration in μM, corrected for 0.8 mL/g water space; Plasma level: unit: uM; details: for Brain level / Plasma level: listed as PU-HZ151
Procedure: Blood and brain tissue were collected following euthanasia at the scheduled time points of 5, 30 min, 1, 4, and 8 h following iv dosing and of 30 min, 1, 4, and 8 h following po dosing. Brain samples were immediately flash frozen in liquid nitrogen following collection and stored at −80 °C until analysis. Blood samples were collected into an EDTA tube by heart puncture and centrifuged at 17,000×g for 5 min at 4 °C to separate the plasma and immediately frozen on dry ice and stored at −80 °C until analysis. […] This was homogenized, extracted with methylene chloride, and evaporated on a GeneVac. […] Drug concentration (μM) in the brain was then modified to account for an average water space of 0.8 mL g^−1.

[2] = molecular target: HSP90 pools in JNPL3 (AD transgenic) mouse brain lysate; assay: Fluorescence polarization (FP) competitive binding, cy3B-GM; details: read-out: FP relative affinity
97 kinases [3] = molecular target: T1, 97 kinases (Homo sapiens, UniProt Q9Y463); assay: scanEDGE off-target screen; format: binding; details: read-out: %Ctrl DYRK1B
T1 construct: purchased Ambit Biosciences (scanEDGE / KINOMEscan) scanEDGE 97 kinase panel; host or cells: T7 phage in E. coli BL21-derived host; remaining kinases in HEK-293 cells

97 kinases [4] = molecular target: T2, 97 kinases (Homo sapiens, UniProt P00519, T315I); assay: scanEDGE off-target screen; format: binding; details: read-out: %Ctrl ABL1(T315I)-phosphorylated
T2 construct: purchased Ambit Biosciences (scanEDGE / KINOMEscan) scanEDGE 97 kinase panel; host or cells: T7 phage in E. coli BL21-derived host; remaining kinases in HEK-293 cells

97 kinases [5] = molecular target: T3, 97 kinases (Homo sapiens, UniProt Q15831); assay: scanEDGE off-target screen; format: binding; details: read-out: %Ctrl LKB1
T3 construct: purchased Ambit Biosciences (scanEDGE / KINOMEscan) scanEDGE 97 kinase panel; host or cells: T7 phage in E. coli BL21-derived host; remaining kinases in HEK-293 cells
T3 sequence (Q15831 whole entry): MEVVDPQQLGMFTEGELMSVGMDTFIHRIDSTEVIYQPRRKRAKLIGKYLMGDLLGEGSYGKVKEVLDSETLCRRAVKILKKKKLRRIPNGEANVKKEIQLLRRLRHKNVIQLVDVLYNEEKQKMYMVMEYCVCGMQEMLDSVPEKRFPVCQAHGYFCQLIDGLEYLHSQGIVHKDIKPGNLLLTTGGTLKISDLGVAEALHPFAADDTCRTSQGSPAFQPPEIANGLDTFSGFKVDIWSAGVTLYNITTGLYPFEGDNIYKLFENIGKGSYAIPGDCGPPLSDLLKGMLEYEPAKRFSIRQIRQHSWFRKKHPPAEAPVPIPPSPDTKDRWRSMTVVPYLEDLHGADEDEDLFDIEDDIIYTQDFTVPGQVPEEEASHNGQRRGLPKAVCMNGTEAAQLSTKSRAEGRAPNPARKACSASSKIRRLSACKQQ

T1 sequence (Q9Y463 whole entry): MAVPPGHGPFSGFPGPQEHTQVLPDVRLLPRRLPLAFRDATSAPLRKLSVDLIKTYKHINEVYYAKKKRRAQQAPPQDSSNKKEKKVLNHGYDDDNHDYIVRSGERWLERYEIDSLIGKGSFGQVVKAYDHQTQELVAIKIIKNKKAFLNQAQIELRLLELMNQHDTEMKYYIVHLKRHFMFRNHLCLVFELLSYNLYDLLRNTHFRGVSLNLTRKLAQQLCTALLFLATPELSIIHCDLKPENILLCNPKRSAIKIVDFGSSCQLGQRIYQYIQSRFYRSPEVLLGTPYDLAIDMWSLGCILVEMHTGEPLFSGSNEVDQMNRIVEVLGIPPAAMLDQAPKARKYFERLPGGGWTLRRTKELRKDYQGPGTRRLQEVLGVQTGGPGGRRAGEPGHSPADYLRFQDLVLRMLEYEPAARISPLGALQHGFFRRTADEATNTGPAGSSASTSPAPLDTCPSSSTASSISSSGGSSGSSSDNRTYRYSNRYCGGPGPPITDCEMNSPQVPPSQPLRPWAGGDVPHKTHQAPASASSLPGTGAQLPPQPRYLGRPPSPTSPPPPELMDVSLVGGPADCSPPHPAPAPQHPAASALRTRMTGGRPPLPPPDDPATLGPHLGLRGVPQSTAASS

Compound: CC(C)(C)CNCCn1c(Sc2cc3c(cc2I)OCO3)nc2c(N)ncnc21 [Compound 85]
- IC50 (HER2 in SKBR3 cells): 8.2 nM
- Brain level ([1]; time 5 min, individual animals): 15.4588 and 7.86 and 11.67
- Brain level ([1]; time 0.5 h, individual animals): 4.224 and 4.34 and 4.57
- Brain level ([1]; time 1 h, individual animals): 2.2188 and 1.91 and 1.47
- Brain level ([1]; time 4 h, individual animals): 0.07412 and 0.06266 and 0.11 and 0.04
- Brain level ([1]; time 8 h, individual animals): 0.009121 and 0.03148 and 0.03 and 0.11
- Plasma level ([1]; time 5 min, individual animals): 9.01 and 9.336 and 14.2069 and 3.61
- Plasma level ([1]; time 0.5 h, individual animals): 1.67 and 1.018 and 1.136 and 1.35
- Plasma level ([1]; time 1 h, individual animals): 0.32 and 0.7228 and 0.6745 and 0.42
- Plasma level ([1]; time 4 h, individual animals): 0.02 and 0.03223 and 0.03275 and 0.03
- Plasma level ([1]; time 8 h, individual animals): 0.01 (2×) and 0 (2×)
- brain exposure relative to PU-H71 ([1]; i.v. 10 mg kg^−1): approximately ten-fold higher
- Cmax ([1]; male, B6D2F1, mouse, brain and lung, iv, single i.v. 10 mg/kg): 10 to 15 µM
- Kp ([1]; male, B6D2F1, mouse, brain, 10 mg kg^−1, oral administration, read-out: brain/plasma): 1.6
- concentration at 5 min ([1]; male, B6D2F1, mouse, brain, intravenous, 10 mg kg^-1, Brain, time 5 min, individual animals, read-out: Brain level): 13.5 µM
- concentration at 0.5 h ([1]; male, B6D2F1, mouse, brain, intravenous, 10 mg kg^−1, Brain, time 0.5 h, individual animals, read-out: Brain level): 4.58 µM
- concentration at 1 h ([1]; male, B6D2F1, mouse, brain, intravenous, 10 mg kg^−1, Brain, time 1 h, individual animals, read-out: Brain level): 2.06 µM
- Kp ([1]; male, B6D2F1, mouse, brain, iv, 10 mg kg^−1, read-out: brain to plasma ratio): 2.35
- AUC ([1]; male, B6D2F1, mouse, brain, iv, i.v. 10 mg kg^−1, read-out: brain exposure, AUC): 8.25 µM·h
- AUC ([1]; male, B6D2F1, mouse, plasma, iv, i.v. 10 mg kg^−1, read-out: plasma exposure, AUC): 3.52 µM·h
- bioavailability ([1]; male, B6D2F1, mouse, plasma, oral, 10 mg kg^−1): 68%
- EC50 [2]: 5 nM
- remaining binding at 10 µM (97 kinases [3]): 36%
- remaining binding at 10 µM (97 kinases [4]): 96%
- remaining binding at 10 µM (97 kinases [5]): 81%
